Where two headings read alike, the source gives them in different places.
What was measured:
[1] = test system: NO production in LPS-induced RAW 264.7 macrophages; experiment: Inhibition of LPS induced NO production in RAW264.7 macrophages (Griess reagent); type: cell-based, mouse
Protocol: All compounds were assayed by measuring the inhibitory effects on NO production induced by LPS in mouse macrophage RAW 264.7 cells. The RAW 264.7 cells were seeded in each well of a 96-well plate at a concentration of 5 × 10^5 cells/ml in DMEM medium containing 10% fetal bovine serum, 2 mmol/l glutamine, 100 U/ml penicillin, and 100 μg/ml streptomycin. After incubation at 37°C in a humidified atmosphere of 5% CO2 air for 12 h, cells were treated with LPS (1 μg/ml) and compounds ([…], and compound was dissolved in DMSO to dilute until the final DMSO concentration <0.1%, v/v), then incubation for 24 h at 37°C. NO production was determined by measuring the quantity of nitrite in the culture medium by the Griess reagent. Aminoguanidine was selected as a positive control. A 50 μl of the supernatant of culture medium was mixed with 100 μl of the Griess reagent. Using nitrite to generate a standard curve, nitrite production was measured by a microplate reader at 540 nm. Cell viability was examined by the MTT method (Wu et al., [2016]). The compounds with inhibitory rate more than 50% at a dose of 50 μg/ml were further detected in the gradient concentrations to calculate IC50 values. […]
(§1) 7. Assay for inhibition toward nitric oxide production in RAW264.7 macrophages The experiment was conducted according to a literature procedure.1 Murine monocytic RAW264.7 cells grown in 96-well cell culture plates (2 × 10^5 cells/well) and pretreated with serial concentrations of the compounds 1‒8 for 30 min, followed by stimulation with LPS (1 μg/mL) under a humidified atmosphere with 5% CO2 at 37°C. After 24 h, the NO production of the supernatant was determined by adding the 100 μL of Griess reagent. Subsequently, the MTT
(§2) [3-(4,5-dimethylthiazol-2-yl)-2,5-diphenyltetrazolium bromide] reduction2 was used to evaluate the cell viability, and results were expressed as the mean value of triplicate determinations. The positive control was aminoguanidine.2 […]

[2] = Cell viability of RAW264.7 macrophages (MTT method); type: cell-based, mouse; conditions: mouse
Protocol: as §1, §2

[3] = Cytotoxic activity toward tumor cell line SMMC7721; type: cell-based; conditions: human, SMMC7721 tumor cells
[4] = Cytotoxic activity toward tumor cell line A549; type: cell-based; conditions: human, A549 tumor cells
[5] = Cytotoxic activity toward tumor cell line U937; type: cell-based; conditions: human, U937 tumor cells
[6] = test system: HBV virus in HepG2.2.15 cells; experiment: In vitro anti-HBV effects (HBV DNA, real time PCR); type: cell-based; conditions: 10 μM
Protocol: HepAD38 cells were cultured with DMEM in 48-well plate at 1 × 10^5 cells/well for 24 h, then treated with 10 μM of each compound for 72 h. After 4 days, the cells were washed with precooled PBS for 2 times. HBV progeny DNA of HepAD38 cells were extracted using QIAamp DNA Blood Mini kit (Biomiga) according to the manufacturer's instruction. Total DNA was reversely transcribed using PrimeScript RT reagent Kit (Takara, Dalian, China). PCR amplification was performed on an StepOne Plus real time PCR system (Applied Biosystems, Foster City, CA) using the SYBR Green Master Mix (Applied Biosystems, Foster City, CA). All experiments were performed in triplicate, and the relative levels of assayed HBV DNA were calculated with the delta–delta CT method using lamivudine as a positive control, and normalized to non-treated control. […]
8. Assay for in vitro anti-HBV effects
HepG2. 2. 15 cells were cultured with DMEM in 48-well plate at 1×10^5 cells/well for 24 h, then treated with 10 µM of compounds for 72 h. At d 4, these cells were washed 2 times with precooled PBS, and treated with 10 µM of compounds for 72 h.
HBV progeny DNA of HepG2. 2. 15 cells were extracted using QIAamp DNA Blood Mini kit (Biomiga) according to the manufacturer's instruction. Then total DNA was reverse transcribed using PrimeScript RT reagent Kit (Takara, Dalian, China). The primers were designed and synthesized by Takara, and the sequences of the primers […]
PCR amplification was performed on an StepOne Plus real time PCR system (Applied Biosystems, Foster City, CA) using the SYBR Green Master Mix (Applied Biosystems, Foster City, CA). All experiments were performed in triplicate, and the relative levels of assayed HBV DNA were calculated with the […]
delta‒delta CT method using lamivudine expressions as positive control, and normalized to non-treated control. […]
(Takara, Dalian, China). The primers were designed and synthesized by Takara, the […]
performed on an StepOne Plus real time PCR system (Applied Biosystems, Foster City, CA) using the SYBR Green Master Mix (Applied Biosystems, Foster City, CA). […]

HaCaT cells = experiment: Protection against UVB-induced cell damage in HaCaT cells (MTT assay); type: cell-based; conditions: HaCaT cells, UVB 30 mJ/cm^2, 20 μM, 24 h; UVB alone 70% of normal group
Protocol: HaCaT cells were seeded at 5 × 10^5 cells per well in 6-well plates and incubated under starvation conditions for 24 h using serum-free MEM. HaCaT cells were exposed to UVB irradiation (UVB lamp: SUV-1000, Sigma-China) at a dose of 30 mJ/cm^2. After UVB irradiation, DMEM medium containing 1 (20 μM) or epigallocatechin gallate (20 μM) was added and the cells were incubated for 24 h, and then the MTT assay was performed.

[7] = RAW264.7 macrophages, RAW264.7, MTT, Table 3, read-out: CC50 (μM) Cytotoxicity
[8] = RAW264.7 macrophages, Table S9 of the supplement, read-out: CC50 (M), 50% cytotoxic concentration
[9] = Mus musculus, RAW264.7, 24 h, LPS 1 μg/ml, 24 h
[10] = Mus musculus, RAW264.7, Table S9 of the supplement, read-out: IC50 (M), 50% inhibitory concentration
[11] = RAW264.7, MTT, Table 3, read-out: CC50 (μM) Cytotoxicity
[12] = Table S9 of the supplement, read-out: CC50 (M), 50% cytotoxic concentration
[13] = Mus musculus, RAW264.7, read-out: IC50 (M), 50% inhibitory concentration

Compound	CC50 at 24 h [2, 7]	CC50 at 24 h [2, 8]	IC50 [3]	inhibition at 50 µg/mL [1, 9]	IC50 [4]	IC50 [5]	IC50 [1, 10]	inhibitory rate of DNA expression of the HBV virus [6]	also measured
N=C(N)NN [Aminoguanidine, reference compound]									IC50 ([1]; LPS 1 μg/ml, 24 h, Table 3, read-out: IC50 (μM) NO): 7.62 ± 0.08 µM
C=C1C2(C)CC3C4(C)C=CC(=O)OC(C)(C)C4CCC3(C)C13C(=O)OC(C)C3(O)C2=O [Compound 2, (5aS, 5bS, 7R, 8aR, 9S, 11aR, 11bS, 13aS)-8a-hydroxy-1,1,5a, 7,9, 11b-hexamethyl-14-methylene-5a, 5b, 6,7,8a, 9, 11b, 12, 13, 13a-decahydro-1H, 11H-7,11a-methanofuro[3″,4″:3′,4′]cyclohepta[1′,2′:3,4]benzo[1,2-c]oxepine-3,8,11-trione]	> 100 µM	> 50 µM	> 10 µM	58%	> 10 µM	> 10 µM			inhibition toward NO production (in words) ([1]; LPS-induced RAW 264.7 macrophages): moderate inhibition; IC50 ([1]; Mus musculus, RAW264.7, 24 h, LPS 1 μg/ml, 24 h, Table 3, read-out: IC50 (μM) NO): 37.7 ± 5.25 µM
C=C1[C@@]2(C)C[C@H]3[C@](C)(CCC(=O)OC)[C@@H](C(C)(C)O)CC[C@]3(C)[C@@]13C(=O)O[C@H](C)[C@@]3(O)C2=O [Compound 4, methyl 3-((3R, 3aR, 5R, 6aS, 7S, 8S, 10aS, 10bR)-3a-hydroxy-8-(2-hydroxypropan-2-yl)-3,5,7,10a-tetramethyl-11-methylene-1,4-dioxodecahydro-1H,3H-5,10b-methanobenzo[3,4]cyclohepta[1,2-c]furan-7-yl)propanoate]	> 100 µM	> 50 µM	> 10 µM	32%	> 10 µM	> 10 µM	> 50 µM	15%	
C=C1[C@@]2(C)C[C@H]3[C@](C)(CCC(=O)OC)[C@@H](C(C)(C)O)CC[C@]3(C)[C@@]13C(=O)O[C@@H](C)[C@@]3(O)C2=O [Compound 5, methyl 3-((3S, 3aR, 5R, 6aS, 7S, 8S, 10aS, 10bR)-3a-hydroxy-8-(2-hydroxypropan-2-yl)-3,5,7,10a-tetramethyl-11-methylene-1,4-dioxodecahydro-1H,3H-5,10b-methanobenzo[3,4]cyclohepta[1,2-c]furan-7-yl)propanoate]	> 100 µM	> 50 µM	> 10 µM	36%	> 10 µM	> 10 µM	> 50 µM	10%	
C=C1C2(C)CC3C4(C)C(O)C5CC(C)(OC5=O)C4CCC3(C)C13C(=O)OC(C)C3(O)C2=O [Compound 6, (1R, 4S, 5R, 5aS, 5bR, 7R, 8aR, 9R, 11aR, 11bS, 13aS)-5,8a-dihydroxy-1,5a,7,9,11b-pentamethyl-14-methylenedodecahydro-1H,11H-1,4:7,11a-dimethanofuro[3″,4″:3′,4′]cyclohepta[1′,2′:3,4]benzo[1,2-c]oxepine-3,8,11-trione]			> 10 µM		> 10 µM	> 10 µM			CC50 at 24 h [2, 11]: > 100 µM; CC50 at 24 h [2, 12]: > 50 µM; IC50 [1, 13]: > 50 µM
C=C1[C@@]2(C)C[C@H]3[C@](C)(CCC(=O)OC)[C@@H](C(C)(C)O)CC[C@]3(C)[C@]1(C(=O)OC)C(=O)[C@@](C)(O)C2=O [Compound 7, preaustinoid D]	> 100 µM	> 50 µM	> 10 µM	28%	> 10 µM	> 10 µM	> 50 µM		
C=C1[C@@]2(C)C[C@H]3[C@]4(C)C=CC(=O)OC(C)(C)[C@H]4CC[C@]3(C)[C@]1(C(=O)OC)C(=O)[C@@](C)(O)C2=O [Compound 8, preaustinoid A2]			> 10 µM		> 10 µM	> 10 µM			CC50 at 24 h [2, 11]: > 100 µM; CC50 at 24 h [2, 12]: > 50 µM; IC50 [1, 13]: > 50 µM
O=C(O[C@@H]1Cc2c(O)cc(O)cc2O[C@@H]1c1cc(O)c(O)c(O)c1)c1cc(O)c(O)c(O)c1 [epigallocatechin gallate, reference compound]									cell viability after UVB irradiation (HaCaT cells): 75%
Nc1ccn([C@@H]2CS[C@H](CO)O2)c(=O)n1 [lamivudine, reference compound]								75%	
